Assay results taken from patent US12139520B2 (priority 2020, dated 2024).
pEC50: −log10 of the molar value. Numbered stars: 1 amine (or outer) side, 2 acyl side, 3 side chain; on linkers, the order of the positions; unused ones are H or OH. Bridge positions count the residues as written; N and C are the ends. Square brackets hold non-standard residues; d marks the D form. Side chains are listed from the residue outwards. Peptide text beside a SMILES is read from it. * marks the point of attachment. C20 diacid = O=C(O)CCCCCCCCCCCCCCCCCCC(=O)*; γGlu = O=C(O)[C@H](CCC(=O)[*:2])N[*:1]; Hyp = O=C(O)[C@@H]1C[C@@H](O)CN1; Trx = NC[C@H]1CC[C@H](C(=O)O)CC1; AEEA = NCCOCCOCC(=O)O

How the values were obtained:
hAM1 receptor = hAM1 receptor (Homo sapiens, UniProt O60895+Q16602); test: cAMP assay for in vitro receptor activation, hAM1-R; type: cell-based; settings: cAMP assay, hAM1 receptor; read-out: hAM1R EC50
Method in brief: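 Receptor activation, read as cAMP, was assessed in thawed cells of a monoclonal hAM1-overexpressing stable line, plated at 8000 cells/well in DPBS supplemented with 0.05% casein and 0.5 mM IBMX.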

hAMY3 receptor = biological target: T1, hAMY3 receptor (Homo sapiens, UniProt O60896+P30988); test: cAMP assay for in vitro receptor activation, hAMY3-R; type: cell-based; settings: cAMP assay, hAMY3 receptor; read-out: hAMY3R EC50
T1 sequence (P30988 25-474): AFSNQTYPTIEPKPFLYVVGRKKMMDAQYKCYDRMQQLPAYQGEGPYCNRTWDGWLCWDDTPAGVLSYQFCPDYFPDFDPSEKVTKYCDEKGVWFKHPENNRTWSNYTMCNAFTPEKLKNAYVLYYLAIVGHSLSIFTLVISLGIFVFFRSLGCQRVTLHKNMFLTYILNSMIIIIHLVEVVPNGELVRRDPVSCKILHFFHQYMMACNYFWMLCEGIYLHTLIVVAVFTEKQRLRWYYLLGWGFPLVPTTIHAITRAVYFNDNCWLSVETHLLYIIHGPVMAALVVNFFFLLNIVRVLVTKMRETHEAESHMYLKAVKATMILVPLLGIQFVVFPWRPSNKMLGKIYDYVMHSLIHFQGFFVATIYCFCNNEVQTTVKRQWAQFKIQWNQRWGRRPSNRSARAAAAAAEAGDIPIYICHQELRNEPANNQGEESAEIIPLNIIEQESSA
T1 sequence (O60896 24-148 partner): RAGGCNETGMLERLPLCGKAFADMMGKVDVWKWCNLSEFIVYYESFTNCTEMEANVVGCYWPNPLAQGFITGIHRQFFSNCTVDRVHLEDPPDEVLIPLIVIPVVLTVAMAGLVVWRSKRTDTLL
Method in brief: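 Receptor activation was measured as cAMP accumulation in a monoclonal cell line stably overexpressing hAMY3. Stimulation with graded doses lasted 30 min at room temperature in the presence of 0.5 mM IBMX, with human amylin as positive control.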

hAM1 receptor, sequence (Q16602 23-461): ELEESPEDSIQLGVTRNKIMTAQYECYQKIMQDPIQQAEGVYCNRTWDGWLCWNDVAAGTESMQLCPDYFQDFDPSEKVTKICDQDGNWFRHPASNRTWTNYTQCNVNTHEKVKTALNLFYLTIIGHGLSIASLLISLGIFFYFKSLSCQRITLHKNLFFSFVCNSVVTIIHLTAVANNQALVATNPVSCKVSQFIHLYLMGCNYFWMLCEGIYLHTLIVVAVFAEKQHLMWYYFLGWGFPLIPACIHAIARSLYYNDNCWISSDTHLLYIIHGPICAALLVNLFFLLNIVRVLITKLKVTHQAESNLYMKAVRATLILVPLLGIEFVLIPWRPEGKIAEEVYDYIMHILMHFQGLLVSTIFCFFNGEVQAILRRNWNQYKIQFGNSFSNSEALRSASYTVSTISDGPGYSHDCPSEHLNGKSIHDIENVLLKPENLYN
hAM1 receptor, sequence (O60895 43-175 partner): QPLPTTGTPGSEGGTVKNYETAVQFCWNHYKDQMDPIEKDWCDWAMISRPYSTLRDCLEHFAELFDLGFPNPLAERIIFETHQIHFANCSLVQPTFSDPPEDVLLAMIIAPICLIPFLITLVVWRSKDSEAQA

SMILES	pEC50 (hAM1 receptor)	pEC50 (hAMY3 receptor)
CC[C@H](C)[C@H](NC(=O)[C@H](C)NC(=O)CNC(=O)[C@H](Cc1ccccc1)NC(=O)[C@H](CC(N)=O)NC(=O)[C@H](CC(N)=O)NC(=O)[C@H](CO)NC(=O)[C@H](CO)NC(=O)[C@H](Cc1c[nH]cn1)NC(=O)[C@@H](NC(=O)[C@H](CC(C)C)NC(=O)[C@H](Cc1ccccc1)NC(=O)[C@H](CC(N)=O)NC(=O)[C@H](C)NC(=O)[C@H](CC(C)C)NC(=O)[C@H](CCCNC(=N)N)NC(=O)[C@H](CCC(N)=O)NC(=O)[C@@H](NC(=O)[C@H](C)NC(=O)[C@@H]1CSSC[C@H](NC(=O)[C@@H](N)CCCCN)C(=O)N[C@@H](CC(N)=O)C(=O)N[C@@H]([C@@H](C)O)C(=O)N[C@@H](C)C(=O)N[C@@H]([C@@H](C)O)C(=O)N1)[C@@H](C)O)C(C)C)C(=O)N[C@@H](CC(C)C)C(=O)N[C@@H](CO)C(=O)N[C@@H](CO)C(=O)N[C@H](C(=O)N[C@@H](CCCCN)C(=O)N[C@H](C(=O)NCC(=O)N[C@@H](CO)C(=O)N[C@@H](CC(N)=O)C(=O)N[C@H](C(=O)N[C@@H](Cc1ccc(O)cc1)C(N)=O)[C@@H](C)O)C(C)C)[C@@H](C)O [compound 58]	< 5.30	10.92
CC[C@H](C)[C@H](NC(=O)[C@H](CCC(N)=O)NC(=O)[C@H](CCC(=O)O)NC(=O)[C@H](C)NC(=O)[C@H](CC(C)C)NC(=O)[C@H](CCCNC(=N)N)NC(=O)[C@H](CCC(N)=O)NC(=O)[C@@H](NC(=O)[C@@H](NC(=O)[C@@H]1CSSC[C@H](NC(=O)[C@H](CCCCN)NC(=O)COCCOCCNC(=O)COCCOCCNC(=O)CC[C@H](NC(=O)[C@H]2CC[C@H](CNC(=O)CCCCCCCCCCCCCCCCCCC(=O)O)CC2)C(=O)O)C(=O)N[C@@H](CC(N)=O)C(=O)N[C@@H]([C@@H](C)O)C(=O)N[C@@H](C)C(=O)N[C@@H]([C@@H](C)O)C(=O)N1)[C@@H](C)O)C(C)C)C(=O)N[C@@H](Cc1ccc(O)cc1)C(=O)N[C@@H](CCC(N)=O)C(=O)N[C@@H](Cc1ccccc1)C(=O)N[C@H](C(=O)N[C@@H](CC(=O)O)C(=O)N[C@@H](CCCCN)C(=O)N[C@@H](CC(=O)O)C(=O)N[C@@H](CCCCN)C(=O)N[C@@H](CC(=O)O)C(=O)N[C@@H](CC(N)=O)C(=O)N[C@H](C(=O)N[C@@H](C)C(=O)N1CCC[C@H]1C(=O)N1CCC[C@H]1C(=O)N[C@H](C(=O)N[C@@H](CC(N)=O)C(=O)N[C@H](C(=O)NCC(=O)N[C@@H](CO)C(=O)N[C@@H](CC(N)=O)C(=O)NCC(=O)N1C[C@H](O)C[C@H]1C(N)=O)C(C)C)[C@@H](C)O)C(C)C)[C@@H](C)O [compound 126] ({C20 diacid-Trx-γGlu-AEEA-AEEA}-KCNTATCTVQRLAEQIYQFTDKDKDNVAPPTNVGSNG[Hyp]-NH2; disulfide 2-7)	< 5.30	10.57

Second part, the molecule after the results:

pEC50 (hAM1 receptor)	pEC50 (hAMY3 receptor)	SMILES
< 5.30	10.80	CC[C@H](C)[C@H](NC(=O)[C@H](CCC(N)=O)NC(=O)[C@H](CCC(=O)O)NC(=O)[C@H](C)NC(=O)[C@H](CC(C)C)NC(=O)[C@H](CCCNC(=N)N)NC(=O)[C@H](CCC(N)=O)NC(=O)[C@@H](NC(=O)[C@@H](NC(=O)[C@@H]1CSSC[C@H](NC(=O)[C@H](CCCCN)NC(=O)CC[C@H](NC(=O)CCCCCCCCCCCCCCCCCCC(=O)O)C(=O)O)C(=O)N[C@@H](CC(N)=O)C(=O)N[C@@H]([C@@H](C)O)C(=O)N[C@@H](C)C(=O)N[C@@H]([C@@H](C)O)C(=O)N1)[C@@H](C)O)C(C)C)C(=O)N[C@@H](Cc1ccc(O)cc1)C(=O)N[C@@H](CCC(N)=O)C(=O)N[C@@H](Cc1ccccc1)C(=O)N[C@H](C(=O)N[C@@H](CC(=O)O)C(=O)N[C@@H](CCCCN)C(=O)N[C@@H](CC(=O)O)C(=O)N[C@@H](CCCCN)C(=O)N[C@@H](CC(=O)O)C(=O)N[C@@H](CC(N)=O)C(=O)N[C@H](C(=O)N[C@@H](C)C(=O)N1CCC[C@H]1C(=O)N1CCC[C@H]1C(=O)N[C@H](C(=O)N[C@@H](CC(N)=O)C(=O)N[C@H](C(=O)NCC(=O)N[C@@H](CO)C(=O)N[C@@H](CC(N)=O)C(=O)N[C@H](C(=O)N1C[C@H](O)C[C@H]1C(N)=O)[C@@H](C)O)C(C)C)[C@@H](C)O)C(C)C)[C@@H](C)O [compound 96] ({C20 diacid-γGlu}-KCNTATCTVQRLAEQIYQFTDKDKDNVAPPTNVGSNT[Hyp]-NH2; disulfide 2-7)
< 5.30	11.22	CC[C@H](C)[C@H](NC(=O)[C@H](CCC(N)=O)NC(=O)[C@H](CC(=O)O)NC(=O)[C@H](C)NC(=O)[C@H](CC(C)C)NC(=O)[C@H](CCCNC(=N)N)NC(=O)[C@H](CCC(N)=O)NC(=O)[C@@H](NC(=O)[C@@H](NC(=O)[C@@H]1CSSC[C@H](NC(=O)[C@H](CCCCN)NC(=O)CC[C@H](NC(=O)CCCCCCCCCCCCCCCCCCC(=O)O)C(=O)O)C(=O)N[C@@H](CC(N)=O)C(=O)N[C@@H]([C@@H](C)O)C(=O)N[C@@H](C)C(=O)N[C@@H]([C@@H](C)O)C(=O)N1)[C@@H](C)O)C(C)C)C(=O)N[C@@H](Cc1ccc(O)cc1)C(=O)N[C@@H](CCC(N)=O)C(=O)N[C@@H](Cc1ccccc1)C(=O)N[C@H](C(=O)N[C@@H](CC(=O)O)C(=O)N[C@@H](CCCCN)C(=O)N[C@@H](CC(=O)O)C(=O)N[C@@H](CCCCN)C(=O)N[C@@H](CC(=O)O)C(=O)N[C@@H](CC(N)=O)C(=O)N[C@H](C(=O)N[C@@H](C)C(=O)N1CCC[C@H]1C(=O)N1CCC[C@H]1C(=O)N[C@H](C(=O)N[C@@H](CC(N)=O)C(=O)N[C@H](C(=O)NCC(=O)N[C@@H](CO)C(=O)N[C@@H](CC(N)=O)C(=O)NCC(=O)N1C[C@H](O)C[C@H]1C(N)=O)C(C)C)[C@@H](C)O)C(C)C)[C@@H](C)O [compound 5] ({C20 diacid-γGlu}-KCNTATCTVQRLADQIYQFTDKDKDNVAPPTNVGSNG[Hyp]-NH2; disulfide 2-7)
< 5.30	11.00	CC[C@H](C)[C@H](NC(=O)[C@H](CCC(N)=O)NC(=O)[C@H](CCC(=O)O)NC(=O)[C@H](C)NC(=O)[C@H](CC(C)C)NC(=O)[C@H](CCCNC(=N)N)NC(=O)[C@H](CCC(N)=O)NC(=O)[C@@H](NC(=O)[C@@H](NC(=O)[C@@H]1CSSC[C@H](NC(=O)[C@@H](N)CCCCN)C(=O)N[C@@H](CC(N)=O)C(=O)N[C@@H]([C@@H](C)O)C(=O)N[C@@H](C)C(=O)N[C@@H]([C@@H](C)O)C(=O)N1)[C@@H](C)O)C(C)C)C(=O)N[C@@H](Cc1ccc(O)cc1)C(=O)N[C@@H](CCC(N)=O)C(=O)N[C@@H](Cc1ccccc1)C(=O)N[C@H](C(=O)N[C@@H](CC(=O)O)C(=O)N[C@@H](CCCCN)C(=O)N[C@@H](CC(=O)O)C(=O)N[C@@H](CCCCN)C(=O)N[C@@H](CCCCNC(=O)COCCOCCNC(=O)COCCOCCNC(=O)CC[C@H](NC(=O)CCCCCCCCCCCCCCCCCCC(=O)O)C(=O)O)C(=O)N[C@@H](CC(N)=O)C(=O)N[C@H](C(=O)N[C@@H](C)C(=O)N1CCC[C@H]1C(=O)N1CCC[C@H]1C(=O)N[C@H](C(=O)N[C@@H](CC(N)=O)C(=O)N[C@H](C(=O)NCC(=O)N[C@@H](CO)C(=O)N[C@@H](CC(N)=O)C(=O)NCC(=O)N1C[C@H](O)C[C@H]1C(N)=O)C(C)C)[C@@H](C)O)C(C)C)[C@@H](C)O [compound 40] (H-KCNTATCTVQRLAEQIYQFTDKDKK([AEEA-AEEA-γGlu-C20 diacid])NVAPPTNVGSNG[Hyp]-NH2; disulfide 2-7; N-terminus assumed)
